The values below come from ChEMBL document CHEMBL1201862, “PubChem BioAssay data set” (2004).

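48-hour exposure; five concentrations; linearly interpolated endpoints. Here, GI50 denotes the concentration required for 50% inhibition of growth.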 Calls of active or inactive are those of the source. Cut-off read from the data, not from the text of the source: active = GI50 up to about 1.1 µM and inactive = higher.

Test systems include BT-549; KM-20L2; DLD-1; DMS-114; XF498; SNB-78; DMS-273; HOP-18.
Holding throughout (test): DTP human tumour cell line panel, 48 h

Turning to `NC(CCP(=O)(O)O)C(=O)O` (stereo not drawn), the GI50 in the experiment with BT-549 was > 100 µM (inactive).
Consider `Cc1c(/N=N/c2ccc(Cl)cc2)c(-c2ccccc2)n(C2OC(CO)C(O)C(O)C2O)c(=S)c1C#N` (stereo not drawn), for which the GI50 in the experiment on BT-549 was 16 µM (inactive).
Take `CCOc1ccc(/N=C\c2cc(OC)c(OC)c(OC)c2)cc1`: the GI50 with KM-20L2, in the experiment with DLD-1, in the experiment with DMS-114, with XF498, in the experiment with SNB-78 and with DMS-273 was > 100 µM (inactive) in each case. Moreover, in the experiment on HOP-18, the GI50 was > 100 µM (inactive).
Turning to `COC(=O)[C@H](Cc1ccccc1)NC(=O)N1CCN(C(=O)N[C@@H](Cc2ccccc2)C(=O)OC)CCN(C(=O)N[C@@H](Cc2ccccc2)C(=O)OC)CC1`, the GI50 in the experiment on BT-549 is > 100 µM (inactive).
With `O=C1C[C@@H](Sc2ccccc2)C2(OCCO2)C2ON3CCCC[C@H]3[C@H]12` (stereo partly drawn), the GI50 with BT-549 was 5.81 µM (inactive).
`O=C(Nc1ccccc1)Oc1ccc(C(=S)Nc2ccc(Br)cc2)cc1`: the GI50 with BT-549 was 12.8 µM (inactive).
For `COc1ccc2nc(-c3ccccc3)cc(OCC(=O)O)c2c1`, in the experiment with BT-549, the GI50 is > 100 µM (inactive).
On the same count and under the same terms, the figure for `COc1ccc2c(c1)CCN=C2Cc1ccccc1CCCl` is 44.2 µM (inactive); for `CC(=O)Nc1nc(C)c(S(=O)(=O)NC(=O)N2c3ccccc3CCc3ccccc32)s1` it is > 100 µM (inactive).
The same measure, in the same setting: to `CC(=O)ON(C(C)=O)c1ccc(-c2nc3ccccc3s2)cc1` belongs 37.6 µM (inactive).
Consider `COc1ccc(C2S/C(=C\c3cccc([N+](=O)[O-])c3)C(=O)N2NC(=O)Cc2ccccc2)cc1` (stereo not drawn), for which the GI50 in the experiment on DLD-1, in the experiment with DMS-114, in the experiment with DMS-273 and with HOP-18 was > 100 µM (inactive) each time.
As for `COc1c(C(=O)O)oc2c(OC)cccc12`, the GI50 in the experiment with DMS-114, in the experiment with SNB-78, in the experiment with DMS-273 and with HOP-18 was > 100 µM (inactive) throughout.
Take `Cn1c(-c2ccccc2)cc2c3ccsc3c3ccsc3c21`: the GI50 with BT-549 was > 100 µM (inactive).
Consider `CC1=C(/C(C)=N/NC(=O)C(N)=O)Sc2ccccc2N1`, for which the GI50 in the experiment with KM-20L2, in the experiment with DLD-1, in the experiment with DMS-114, in the experiment on XF498, in the experiment with SNB-78 and in the experiment with DMS-273 was > 100 µM (inactive) throughout. In the experiment with HOP-18, the GI50 is > 100 µM (inactive).
As for `Nc1ccc(Cc2ccc(N)c(C(=O)O)c2)cc1C(=O)O`, the GI50 in the experiment with BT-549 was > 100 µM (inactive).
With `O=P1(NCCCl)OCCCN1CCCl` (stereo not drawn) [IFOSFAMIDE], the GI50 in the experiment with KM-20L2 was 385 µM (inactive); in the experiment on DLD-1, 380 µM (inactive); with BT-549, > 500 µM (inactive); with DMS-114, 399 µM (inactive); in the experiment with XF498 it was 381 µM (inactive); in the experiment with SNB-78, 384 µM (inactive). In addition, the GI50 in the experiment with DMS-273 is 364 µM (inactive); in the experiment with HOP-18, 104 µM (inactive).
Take `CCN(CC)CCCNc1ccc2ncn3c4ccc(O)cc4c(=O)c1c23`: the GI50 with KM-20L2 was 2.85 µM (inactive); with DLD-1, 1.24 µM (inactive); in the experiment on DMS-114 it was 3.37 µM (inactive); in the experiment with XF498, 0.239 µM (active); with SNB-78, 8.65 µM (inactive); in the experiment on DMS-273, 0.553 µM (active). Also, the GI50 with HOP-18 is 18.6 µM (inactive).
On to `COc1cc(C2c3cc4c(cc3C(O)C3CCC(=O)N23)OCO4)cc(OC)c1OC` (stereo not drawn), for which the GI50 in the experiment with BT-549 was 14.9 µM (inactive).
On to `COC(=O)C1=Nc2c(C)nn(-c3ccccc3)c2N=C(c2ccc([N+](=O)[O-])cc2)C1`, for which the GI50 in the experiment on BT-549 is > 10 µM (inactive).
For `Cc1cc(O)cc2c1c(=O)c1ccccc1n2C`, in the experiment on BT-549, the GI50 is 50.6 µM (inactive).
For `C1CCOC2(CCC3(CC2)OCCCCO3)OC1`, the GI50 in the experiment on KM-20L2, with DLD-1, in the experiment on DMS-114, in the experiment on SNB-78, in the experiment on DMS-273 and in the experiment with HOP-18 was > 100 µM (inactive) throughout.
Turning to `C=C(C)C(=O)O[C@H]1CC2(CO)O[C@@H]2CC/C(COC(C)=O)=C/C2OC(=O)C(=C)[C@@H]21` (stereo partly drawn), the GI50 in the experiment on BT-549 was 21.8 µM (inactive).
Still for that read-out and setting: to `CCCN(CCc1ccc(-c2ccccc2)cc1)CCc1ccc2nn[nH]c2c1` belongs 8.2 µM (inactive).
With `CC(=O)O[C@]1(C)OC(=O)[C@@H](CC(C)C)N1[N+](=O)[O-]`, the GI50 was > 100 µM (inactive) in the experiment on KM-20L2; > 100 µM (inactive) with DLD-1; > 100 µM (inactive) in the experiment on DMS-114; < 0.01 µM (active) in the experiment with XF498; > 100 µM (inactive) with SNB-78; > 100 µM (inactive) with DMS-273. Besides, the GI50 in the experiment on HOP-18 was > 100 µM (inactive).
Take `CCOC(=O)c1c[nH]c2cc3c(cc2c1=O)CCS3`: in the experiment on BT-549, the GI50 is > 100 µM (inactive).
For `NC1=NNC2(C(N)=N1)c1ccccc1-c1ccccc12`, in the experiment on BT-549, the GI50 is > 10 µM (inactive).
In the case of `COc1ccc(C2Cc3cc(OC)c(OC)c(OC)c3C2)cc1` (stereo not drawn), the GI50 in the experiment with KM-20L2 was 49.8 µM (inactive); in the experiment with DLD-1, 44.7 µM (inactive); in the experiment on DMS-114, 27.8 µM (inactive); in the experiment with XF498, 11.3 µM (inactive); in the experiment on SNB-78 it was 72.6 µM (inactive); with DMS-273, 36.8 µM (inactive). Further, the GI50 in the experiment on HOP-18 was 72.3 µM (inactive).
Turning to `CC1=C(C(=O)Nc2cc(F)c(F)cc2F)C(c2ccc3c(c2)OCO3)C(C(=O)Nc2cc(F)c(F)cc2F)=C(C)N1`, the GI50 with KM-20L2 is 22.3 µM (inactive); in the experiment on DLD-1, 18.9 µM (inactive); with DMS-114, 17.7 µM (inactive); in the experiment with XF498 it was 6.34 µM (inactive); with SNB-78, 17.2 µM (inactive).
Consider `N=c1oc2c(Cl)cc(Cl)cc2cc1C(=O)Nc1cccc2ccccc12`, for which the GI50 in the experiment on BT-549 is 30.1 µM (inactive).
With `Clc1ccccc1C(c1ccccc1)(c1ccccc1)n1ccnc1` [CLOTRIMAZOLE], in the experiment on BT-549, the GI50 was 8.05 µM (inactive).
Take `O=C(Nc1ccccc1)Nn1c(-c2cccs2)nc2ccc(I)cc2c1=O`: the GI50 in the experiment with BT-549 is 10.5 µM (inactive).
As to `Cc1cc(C)c(-n2c(C)c(C)c(C#N)c2N)c(C)c1`, in the experiment with BT-549, the GI50 is 34.8 µM (inactive).
As for `O=C(/C=C/c1ccc(Br)cc1)c1ccc(NCc2nc3ccccc3[nH]2)cc1`, the GI50 with KM-20L2 is 4.83 µM (inactive); with DLD-1, 4.83 µM (inactive); with DMS-114, 2.99 µM (inactive); with XF498, 5.89 µM (inactive); in the experiment with SNB-78, 2.98 µM (inactive); with DMS-273, 5.7 µM (inactive). Besides, in the experiment on HOP-18, the GI50 was > 46.2 µM (inactive).
Consider `Cn1c(-c2ccc(C=O)o2)ccc1-c1ccc(C=O)o1`, for which the GI50 in the experiment on BT-549 is 55.8 µM (inactive).
`O=C1CCCCC1CN1CCCCC1` (stereo not drawn): in the experiment with BT-549, the GI50 was > 100 µM (inactive).
Take `C#CCCCC(=O)N(C(=O)C[S+]([O-])CC)c1ccccc1` (stereo not drawn): in the experiment on BT-549, the GI50 was > 100 µM (inactive).
With `COC(=O)NC(Cc1ccccc1)NC(C)=O` (stereo not drawn), the GI50 with BT-549 was > 100 µM (inactive).
With `NC(=O)c1nnsc1N/N=C/c1ccc([N+](=O)[O-])cc1`, in the experiment with BT-549, the GI50 was 19.7 µM (inactive).
On to `C#CCOC(=O)c1ccc(OC(C)=O)cc1`, for which the GI50 in the experiment with BT-549 was > 100 µM (inactive).
With `Cc1cc(S(=O)(=O)O)ccc1/N=N/c1ccc(/N=N/c2c(O)ccc3ccccc23)c(C)c1`, the GI50 in the experiment with BT-549 was > 100 µM (inactive).
Consider `Cc1ccc(C(=O)Nc2ccccc2)cc1/N=N/N(C)C`, for which the GI50 was > 10 µM (inactive) with KM-20L2, > 100 µM (inactive) in the experiment with DLD-1, > 100 µM (inactive) in the experiment on SNB-78 and > 100 µM (inactive) in the experiment on DMS-273.
As for `COc1ccc(N2C(=O)C3c4[nH]c5cc(Cl)ccc5c4C4CCC(C(C)(C)C)CC4C3C2=O)cc1` (stereo not drawn), in the experiment on BT-549, the GI50 is > 100 µM (inactive).
Consider `COc1cc(C2OC(N)=C(C#N)C3=C2C(C)CCC3)cc(OC)c1OC` (stereo not drawn), for which the GI50 with BT-549 was > 100 µM (inactive).
In the case of `S=C=NCc1ccccc1` [BENZYL ISOTHIOCYANATE], the GI50 in the experiment with BT-549 is 2.32 µM (inactive).
In the case of `CC(Cl)CC(=O)OCC1CCCN2CCCCC12` (stereo not drawn), the GI50 in the experiment with BT-549 was > 100 µM (inactive).
`OC(c1ccc(F)cc1)C(F)(F)c1nc(-c2ccccc2)no1` (stereo not drawn): the GI50 with BT-549 is 17.8 µM (inactive).
As to `COc1cc(/C=C/C(=O)c2sc(Nc3ccccc3)nc2C)ccc1O`, the GI50 was > 100 µM (inactive) with KM-20L2; 37.5 µM (inactive) in the experiment on DLD-1; 44.6 µM (inactive) in the experiment with DMS-114; > 100 µM (inactive) in the experiment on SNB-78; > 100 µM (inactive) in the experiment with DMS-273; > 100 µM (inactive) in the experiment with HOP-18.
Turning to `C#CCN(Cc1ccc2[nH]c(N)nc(=O)c2c1)c1ccc(C(=O)NC(CCC(=O)O)C(=O)O)cc1` (stereo not drawn), the GI50 in the experiment on BT-549 is 8.11 µM (inactive).
As for `CCc1n[nH]c(=O)[nH]1`, the GI50 in the experiment with BT-549 is > 100 µM (inactive).
As for `CN1CCCCC1CCN1CCCCC1` (stereo not drawn), in the experiment with BT-549, the GI50 is > 100 µM (inactive).
In the case of `CC(=O)Nc1ccc(-c2nnc(SCC(=O)Nc3ccccc3[N+](=O)[O-])o2)cc1`, the GI50 in the experiment with KM-20L2 was > 100 µM (inactive); in the experiment with DLD-1, > 100 µM (inactive); in the experiment with DMS-114 it was 27.9 µM (inactive); in the experiment on SNB-78, > 100 µM (inactive); with DMS-273 it was > 100 µM (inactive); in the experiment with HOP-18, > 100 µM (inactive).
Take `COC(=O)C1CC23CCCN4CCC5(c6ccccc6N(C=O)C15CC2)C43` (stereo not drawn): the GI50 in the experiment on BT-549 is > 100 µM (inactive).
Consider `CCOC(=O)N[C@H]1CCc2cc(OC)c(OC)c(OC)c2-c2ccc(SC)c(=O)cc21`, for which the GI50 with KM-20L2, in the experiment with DLD-1, in the experiment on BT-549, with XF498, in the experiment on SNB-78 and in the experiment on DMS-273 was < 0.01 µM (active) throughout.
For `COC(=O)c1c(C)[n+]([O-])c2cc(Cl)c(Cl)cc2[n+]1[O-]`, the GI50 in the experiment on BT-549 is 22.6 µM (inactive).
For the molecule `COc1ccc(C(=O)C(C(=O)C(=O)Nc2nccs2)c2ccc(OC)cc2)cc1` (stereo not drawn), the GI50 with KM-20L2, in the experiment on DLD-1, in the experiment on DMS-114, with XF498, with SNB-78 and in the experiment with DMS-273 was > 100 µM (inactive) in each case. Besides, in the experiment on HOP-18, the GI50 was > 100 µM (inactive).
Consider `COc1ccc(CNc2ccn(C3OC(CO)C(O)C3O)c(=O)n2)cc1` (stereo not drawn), for which the GI50 in the experiment with BT-549 was 62.5 µM (inactive).

Broadly, the GI50 is the concentration giving 50% growth inhibition.
